Experiments:
[1] = system: influenza A virus A/Aichi/2/68 (H3N2); assay: Cytopathic effect (CPE) assay H3N2; format: cell-based, influenza A virus (H3N2) on MDCK cells; conditions: Influenza A virus, H3N2, activity conc 2 (μM per method); read-out: CPE H3N2 reduction (%)
In short: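 MDCK cells infected with A/Aichi/2/68 (H3N2) at MOI 0.05 in trypsin-containing medium, compound (generally 25 μM and 250 μM, 1% DMSO) added together with virus; 48 hrs at 37° C. Viability by ATP luminescence; % CPE reduction = infected-treated minus infected-untreated RLU, normalized to uninfected-treated viability.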

[2] = target: PB2 cap binding domain (CBD) (Influenza A virus, UniProt Q9Q0V1); assay: biochemical; set-up: species or system avian H5N1 influenza virus
Sequence of PB2 cap binding domain (CBD) (Q9Q0V1 318-483 limits assumed): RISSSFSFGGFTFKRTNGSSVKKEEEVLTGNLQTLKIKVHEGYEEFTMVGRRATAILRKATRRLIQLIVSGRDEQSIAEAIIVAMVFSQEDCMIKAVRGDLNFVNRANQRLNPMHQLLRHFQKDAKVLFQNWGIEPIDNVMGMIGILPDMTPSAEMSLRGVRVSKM

Question: Which results are given for `Cc1c(-c2ccc(F)cc2F)sc2nc(N)[nH]c(=O)c12` [SAV-7610]?
Answer: inhibition at 2 µM [1]: -1.6%; Kd [2]: 3.8 µM; EC50 (ALPHA screen): 0.62 µM
